Tests used:
[1] = tested on: ECHORC (Echinochloa oryzoides); assay: Flooded paddy, postemergence weed control; format: in vivo, Echinochloa oryzoides (Ard.) Fritsch.; settings: postemergence weeds, rated 3-4 weeks after treatment
Source text: (§1) Results of herbicide evaluation are expressed on a rating scale (0-9). The scale is based upon a visual observation of plant stand, vigor, malformation, size, chlorosis and overall plant appearance as compared with a control.
(§2) Plastic containers containing weeds which are 3 to 5 cm tall and rice seedlings at the 1.5 to 2.5 leaf stage are flooded with water. The water is maintained at 1.5 to 3 cm above the soil surface for the duration of the experiment. Test compounds are applied as aqueous/acetone mixtures 50/50 v/v directly into the flood water to provide the equivalent of about 0.0320 to 0.2500 kg/ha of active ingredient. The treated containers are placed on greenhouse benches and cared for in accordance with conventional greenhouse procedures. Three to four weeks after treatment, the test is terminated and each container is examined and herbicidal effect rated according to the rating system provided in Example 87. The compounds evaluated are identified in Example 87 and plant species used are identified in Example 89.

SETVI (Setaria viridis) [2] = assay: Preemergence herbicidal evaluation; format: in vivo, (L.) Beau; settings: rated 4-5 weeks after treatment
Method in brief: (§3)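 Each species was sown separately in potting soil over roughly one inch of soil, and the surface sprayed with compound dissolved in aqueous acetone. Assessment used a 0–9 visual scale against a control after four to five weeks.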

[3] = tested on: ECHCG (Echinochloa crus-galli); assay: Preemergence herbicidal evaluation; format: in vivo, (L.) Beau; settings: rated 4-5 weeks after treatment
Method in brief: as §3

ZEAMX (Corn, Field) = assay: Preemergence herbicidal evaluation; format: in vivo, Zea mays, L.; settings: rated 4-5 weeks after treatment
GALAP (Galium aparine) [4] = assay: Postemergence herbicidal evaluation; format: in vivo; settings: for GALAP herbicidal rating: postemergence
Method in brief: (§4)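 Seedlings grown for about two weeks were sprayed postemergence and then kept under standard greenhouse care. Injury was rated visually 4–5 weeks after treatment on a 0–9 scale against untreated controls, and ratings from repeat tests were averaged.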

SETVI (Setaria viridis) [5] = assay: Postemergence herbicidal evaluation; format: in vivo, (L.) Beau; settings: for SETVI herbicidal rating: postemergence
Method in brief: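 ~2-wk seedlings; spray 0.0040–1.000 kg/ha in 50/50 acetone/water + 0.5% TWEEN 20, 40 psi nozzle. Greenhouse hold; visual 0–9 rating vs control at 4–5 wk; multiple tests averaged.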

[6] = tested on: GLXMAW (Soybean, Williams); assay: Postemergence herbicidal evaluation; format: in vivo, Glycine max, (L.) Merr. cv Williams; settings: for GLXMAW herbicidal rating: postemergence
Method in brief: as §4

[7] = tested on: GLXMAW (Soybean, Williams); assay: Preemergence herbicidal evaluation; format: in vivo, Glycine max, (L.) Merr. cv Williams; settings: rated 4-5 weeks after treatment
[8] = tested on: SAGPY (Sagittaria pygmaea); assay: Flooded paddy, postemergence weed control; format: in vivo, L.; settings: postemergence weeds, rated 3-4 weeks after treatment
Source text: as §1, §2

ORYSAT (Rice, Tebonnet) = assay: Flooded paddy, post-transplant and postemergence rice tolerance; format: in vivo, Oryza sativa, (L.) Tebonnet; settings: post-transplant rice, rated 3-4 weeks after treatment
Source text: as §1, §2

[9] = tested on: MOOVA (Monochoria vaginalis); assay: Flooded paddy, preemergence weed control; format: in vivo, Presl.; settings: rated 3-4 weeks after treatment, 0-9 rating scale
Method in brief: (§5)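 Seeds or propagating organs were sown in the top 0.5 cm of silt loam soil, flooded, and the water kept 1.5 to 3 cm above the soil surface throughout. Plants were grown in the greenhouse and rated visually on a 0-9 scale against a control.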

[10] = tested on: IPOHE (Ipomoea hederacea); assay: Preemergence herbicidal evaluation; format: in vivo, (L.) Jacq.; settings: rated 4-5 weeks after treatment
CYPIR (Cyperus iria) [11] = assay: Flooded paddy, postemergence weed control; format: in vivo; settings: postemergence weeds, rated 3-4 weeks after treatment
Source text: as §1, §2

GALAP (Galium aparine) [12] = assay: Preemergence herbicidal evaluation; format: in vivo; settings: rated 4-5 weeks after treatment
Method in brief: as §3

[13] = tested on: CYPSE (Cyperus serotinus); assay: Flooded paddy, postemergence weed control; format: in vivo, Rottb.; settings: postemergence weeds, rated 3-4 weeks after treatment
Source text: as §1, §2

CYPIR (Cyperus iria) [14] = assay: Flooded paddy, preemergence weed control; format: in vivo; settings: rate 0.1250 kg/ha, rated 3-4 weeks after treatment, 0-9 rating scale
Method in brief: as §5

[15] = tested on: MOOVA (Monochoria vaginalis); assay: Flooded paddy, postemergence weed control; format: in vivo, Presl.; settings: postemergence weeds, rated 3-4 weeks after treatment
Source text: as §1, §2

## 1-methyl-3-[3-(1,3-oxathian-2-yl)-1,2-benzisothiazol-5-yl]-6-(trifluoromethyl)uracil S′,S′-dioxide [Compound 35]
[1]; 0.0620 kg/ha into flood water
  herbicide rating (0-9) ECHORC: 4.0
[1]; 0.1250 kg/ha into flood water
  herbicide rating (0-9) ECHORC: 4.0
[1]; 0.2500 kg/ha into flood water
  herbicide rating (0-9) ECHORC: 9.0
SETVI (Setaria viridis) [2]; Rate 0.0620 kg/ha
  SETVI preemergence herbicidal rating: 9.0
  Preemergence herbicidal rating SETVI: 8.0
SETVI (Setaria viridis) [2]; Rate 0.1250 kg/ha
  SETVI preemergence herbicidal rating: 9.0
  Preemergence herbicidal rating SETVI: 9.0
SETVI (Setaria viridis) [2]; Rate 0.2500 kg/ha
  SETVI preemergence herbicidal rating: 9.0
  Preemergence herbicidal rating SETVI: 9.0
[3]; Rate 0.0620 kg/ha
  ECHCG preemergence herbicidal rating: 8.0
  Preemergence herbicidal rating ECHCG: 3.0
[3]; Rate 0.1250 kg/ha
  ECHCG preemergence herbicidal rating: 9.0
  Preemergence herbicidal rating ECHCG: 6.0
[3]; Rate 0.2500 kg/ha
  ECHCG preemergence herbicidal rating: 9.0
  Preemergence herbicidal rating ECHCG: 7.5
ZEAMX (Corn, Field); Rate 0.0620 kg/ha
  ZEAMX preemergence herbicidal rating: 5.5
  Preemergence herbicidal rating ZEAMX: 0.0
ZEAMX (Corn, Field); Rate 0.1250 kg/ha
  ZEAMX preemergence herbicidal rating: 9.0
  Preemergence herbicidal rating ZEAMX: 1.0
ZEAMX (Corn, Field); Rate 0.2500 kg/ha
  ZEAMX preemergence herbicidal rating: 9.0
  Preemergence herbicidal rating ZEAMX: 2.5
GALAP (Galium aparine) [4]; rate 0.0320 kg/ha
  GALAP herbicidal rating: 2.0
  Postemergence herbicidal rating, GALAP: 3.0
GALAP (Galium aparine) [4]; rate 0.0620 kg/ha
  GALAP herbicidal rating: 4.0
  Postemergence herbicidal rating, GALAP: 4.0
SETVI (Setaria viridis) [5]; rate 0.0320 kg/ha
  SETVI herbicidal rating: 3.0
  Postemergence herbicidal rating, SETVI: 9.0
SETVI (Setaria viridis) [5]; rate 0.0620 kg/ha
  SETVI herbicidal rating: 4.0
  Postemergence herbicidal rating, SETVI: 9.0
[6]; rate 0.0320 kg/ha
  GLXMAW herbicidal rating: 4.0
  Postemergence herbicidal rating, GLXMAW: 9.0
[6]; rate 0.0620 kg/ha
  GLXMAW herbicidal rating: 5.5
  Postemergence herbicidal rating, GLXMAW: 9.0
[7]; Rate 0.0620 kg/ha
  GLXMAW preemergence herbicidal rating: 8.0
  Preemergence herbicidal rating GLXMAW: 0.0
[7]; Rate 0.1250 kg/ha
  GLXMAW preemergence herbicidal rating: 9.0
  Preemergence herbicidal rating GLXMAW: 0.5
[7]; Rate 0.2500 kg/ha
  GLXMAW preemergence herbicidal rating: 9.0
  Preemergence herbicidal rating GLXMAW: 2.0
[8]; 0.0620 kg/ha into flood water
  herbicide rating (0-9) SAGPY: 0.0
[8]; 0.1250 kg/ha into flood water
  herbicide rating (0-9) SAGPY: 0.0
[8]; 0.2500 kg/ha into flood water
  herbicide rating (0-9) SAGPY: 0.0
ORYSAT (Rice, Tebonnet); 0.0620 kg/ha into flood water
  herbicide rating (0-9) ORYSAT (rice tolerance): 3.0
ORYSAT (Rice, Tebonnet); 0.1250 kg/ha into flood water
  herbicide rating (0-9) ORYSAT (rice tolerance): 4.0
ORYSAT (Rice, Tebonnet); 0.2500 kg/ha into flood water
  herbicide rating (0-9) ORYSAT (rice tolerance): 5.0
[9]; rate 0.0080 kg/ha
  herbicidal rating, MOOVA: 0.0
[9]; rate 0.0080 kg/ha, listed as 82
  herbicidal rating, MOOVA: 8.5
[9]; rate 0.0320 kg/ha
  herbicidal rating, MOOVA: 5.0
[9]; rate 0.0320 kg/ha, listed as 82
  herbicidal rating, MOOVA: 9.0
[9]; rate 0.1250 kg/ha
  herbicidal rating, MOOVA: 9.0
[10]; Rate 0.0620 kg/ha
  IPOHE preemergence herbicidal rating: 9.0
  Preemergence herbicidal rating IPOHE: 0.5
[10]; Rate 0.1250 kg/ha
  IPOHE preemergence herbicidal rating: 9.0
  Preemergence herbicidal rating IPOHE: 3.0
[10]; Rate 0.2500 kg/ha
  IPOHE preemergence herbicidal rating: 9.0
  Preemergence herbicidal rating IPOHE: 7.0
CYPIR (Cyperus iria) [11]; 0.0620 kg/ha into flood water
  herbicide rating (0-9) CYPIR: 9.0
CYPIR (Cyperus iria) [11]; 0.1250 kg/ha into flood water
  herbicide rating (0-9) CYPIR: 9.0
CYPIR (Cyperus iria) [11]; 0.2500 kg/ha into flood water
  herbicide rating (0-9) CYPIR: 9.0
GALAP (Galium aparine) [12]; Rate 0.0620 kg/ha
  GALAP preemergence herbicidal rating: 9.0
  Preemergence herbicidal rating GALAP: 7.0
GALAP (Galium aparine) [12]; Rate 0.1250 kg/ha
  GALAP preemergence herbicidal rating: 9.0
  Preemergence herbicidal rating GALAP: 9.0
GALAP (Galium aparine) [12]; Rate 0.2500 kg/ha
  GALAP preemergence herbicidal rating: 9.0
  Preemergence herbicidal rating GALAP: 9.0
[13]; 0.0620 kg/ha into flood water
  herbicide rating (0-9) CYPSE: 0.0
[13]; 0.1250 kg/ha into flood water
  herbicide rating (0-9) CYPSE: 0.0
[13]; 0.2500 kg/ha into flood water
  herbicide rating (0-9) CYPSE: 9.0
CYPIR (Cyperus iria) [14]
  herbicidal rating, CYPIR: 9.0
[15]; 0.0620 kg/ha into flood water
  herbicide rating (0-9) MOOVA: 9.0
[15]; 0.1250 kg/ha into flood water
  herbicide rating (0-9) MOOVA: 9.0
[15]; 0.2500 kg/ha into flood water
  herbicide rating (0-9) MOOVA: 9.0
